One assay has as its system BxPC-3 xenograft tumor. As to the kind of experiment: Xenograft tumor model, nude mice bearing BxPC-3. In kind it is in vivo. As to conditions: BxPC-3 tumor, twice/week up to 4-week, gemcitabine 30 mg/kg, DGLA 8 mg/mouse, iminodibenzyl 25 mg/kg.
The subject of the next assay is HCA-7 (colon cancer). Description: Colony formation assay / cell survival, HCA-7. It counts as cell-based, human. As to conditions: for Cell Survival Rate: HCA-7/C29, DGLA-enriched media, control 100%. The procedure: (§1) Colony formation assay was conducted in a total of three human cancer cell lines featuring high levels of COX-2, including HCA-7 (colon cancer), A549 (non-small cell lung cancer), BxPC-3 (pancreatic cancer), upon treatment of iminodibenzyl (10 μM). GC/MS was used to measure 8-HOA formation as described elsewhere.

For assay [1], the system named is A549 (non-small cell lung cancer). As to the kind of experiment: Colony formation assay / cell survival, A549. It counts as cell-based, human. Particulars: A549 (A-495 [sic]), 10 μM, DGLA-enriched media, control 100%. The procedure:
as §1

Another assay has as its target T1, D5D (Rattus norvegicus, UniProt Q920R3).
T1 construct: Rat liver microsomal assay was conducted
Description: Rat liver microsomal assay, conversion of DGLA to AA by D5D. It counts as biochemical.

The test system of assay [2] is Lewis Lung Carcinoma Cells (LLC). Description: Lewis Lung Carcinoma primary tumor growth and metastatic lung tumor formation. It counts as in vivo, C57/B6 mice. As to conditions: for Primary Tumor size (mm^3) / 8-HOA (μM) in Blood / Reduced Tumor Growth vs. V.C.: dose every day; for Primary Tumor size (mm^3) / Reduced Tumor Growth vs. V.C.: DGLA 5 mg/mouse, iminodibenzyl i.p. 15 mg/kg; for 8-HOA (μM) in Blood: vehicle 0.015; for Reduced Tumor Growth vs. V.C.: primary tumor; for mice that developed metastatic lung tumor: four-week treatment, Day 28 (combination up to Day 31). The procedure:
One million Lewis Lung Carcinoma Cells (LLC,), suspended in 50 μL of PBS, were implanted into front/hind flanks (0.5 million each) of C57/B6 mice. A total of twenty […] mice were divided to four groups: six in vehicle control, six in DGLA+iminodibenzyl combination, three in DGLA (oral), and five in iminodibenzyl (i.p.) group. Every day treatment regimen was started one-week after LLC cells implanted into mice blank. Primary tumor growth was monitored twice a week using a digital caliper as well as via ultrasound image system for treatment outcome. Tumor volume was calculated: […] Tumor Growth Reduction Rate (%, Table 8) in each experiment after 4-week treatment was used to assess their associated anti-tumor responses: […]

The next assay deals with A549 cells. Description: 8-HOA formation from COX-2-catalyzed DGLA peroxidation (GC/MS) in A549. It counts as cell-based, human. As to conditions: A549 (A-495 [sic]) cells; 10 μM; DGLA-enriched media; control 0.29. The procedure:
as §1

The test system of the next assay is BxPC-3 cells. Description: 8-HOA formation from COX-2-catalyzed DGLA peroxidation (GC/MS) in BxPC-3. In kind it is cell-based, human. Particulars: 10 μM, DGLA-enriched media, control 0.26. The protocol:
as §1

The subject of another assay is HCA-7/C29 cells. As to the kind of experiment: 8-HOA formation from cellular COX-2-catalyzed DGLA peroxidation (GC/MS) in HCA-7/C29. It counts as cell-based, human. As to conditions: 10 μM compound, DGLA-enriched medium, threshold >0.5 μM in 10^6 cells, control 0.33. The procedure:
as §1

For assay [3], the system named is BxPC-3 (pancreatic cancer). As to the kind of experiment: Colony formation assay / cell survival, BxPC-3. It counts as cell-based, human. As to conditions: 10 μM, DGLA-enriched media, control 100%. The procedure: as §1
A further assay relates to HCA-7 xenograft tumor. As to the kind of experiment: Xenograft tumor model, nude mice bearing HCA-7. It counts as in vivo. As to conditions: HCA-7 tumor; for [8-HOA]: control 0.03. The protocol:
(§2) About two million of selected cancer cells, suspended in 50 μL of PBS, were implanted into hind flank of nude mice. Feeding with standard diet for two weeks after the cell implantation (to allow tumors reach the certain size), mice were then placed into the treatment groups. Twenty mice were randomly divided to four experimental groups (vehicle control, DGLA, […] inhibitor, and DGLA+D5D inhibitor combination) in each treatment regime to assess their anti-tumor responses. Two treatment regimes (e.g., treatment applied on every other day or every day up to 4-week) were assessed for their anti-tumor responses in HAC-7 and A459 tumor models. Every day treatment plan was listed in FIG. 9 as xenograft models and treatment example. Tumor growth was monitored twice a week using a digital caliper as well as via ultrasound image system for treatment outcome. Tumor volume was calculated: V=L×W2/2. At the endpoint (4-week treatment), the mice were euthanized, and the tumor tissues were collected, weighted, conducted for other analysis.

In the next assay the test system is A549 xenograft tumor. Description: Xenograft tumor model, nude mice bearing A549. In kind it is in vivo. As to conditions: for Tumor Growth Reduction % (vs. Control) / [8-HOA]: A549 (printed A459) tumor, every day, 4-week, DGLA 5 mg/mouse oral, iminodibenzyl 15 mg/kg i.p.; for [8-HOA]: control 0.02. The procedure:
as §2, with “analysis. Tumor Growth Reduction Rate (%, Tables 5, 7) in each experiment after 4-week treatment was used to assess their associated anti-tumor responses: […]” for “analysis.”

Setting [4] is: inhibition of D5D conversion of DGLA to AA, rat liver microsomes, read-out: IC50 (rat microsome).
Where [5] appears, read: every day, 4-week, DGLA 5 mg/mouse oral, iminodibenzyl 15 mg/kg i.p.

Several values for one entry are separate records, joined by “and”; a condition that tells them apart may be missing. Equal entries are not always repeated. Where two headings read alike, the source gives them in different places.

T1 sequence (Q920R3 whole entry): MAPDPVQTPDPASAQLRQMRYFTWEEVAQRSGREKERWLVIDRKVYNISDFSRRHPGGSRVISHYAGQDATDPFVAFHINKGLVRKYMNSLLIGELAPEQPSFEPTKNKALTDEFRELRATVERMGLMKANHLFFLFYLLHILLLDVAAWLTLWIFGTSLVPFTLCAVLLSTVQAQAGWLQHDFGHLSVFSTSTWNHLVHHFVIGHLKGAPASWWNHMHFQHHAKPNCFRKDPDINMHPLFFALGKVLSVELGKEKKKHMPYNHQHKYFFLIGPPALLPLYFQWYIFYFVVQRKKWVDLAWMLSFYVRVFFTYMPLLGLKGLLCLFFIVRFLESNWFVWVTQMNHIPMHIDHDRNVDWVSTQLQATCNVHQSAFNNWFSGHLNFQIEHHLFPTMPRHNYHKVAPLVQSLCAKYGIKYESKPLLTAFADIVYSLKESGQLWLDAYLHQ

`Nc1ccn([C@@H]2O[C@H](CO)[C@@H](O)C2(F)F)c(=O)n1` [Gemcitabine]: the “Tumor Growth Reduction % (vs. Control)” value in the assay on BxPC-3 xenograft tumor is 24%; in the assay with BxPC-3 xenograft tumor (listed as gemcitabine), about 24%.

Consider `c1ccc2c(c1)CCc1ccccc1N2` [Iminodibenzyl, 10,11-dihydro-5H-dibenz[b,f]azepine], for which the “Cell Survival Rate” value in the assay on HCA-7 (colon cancer) (10 μM) is listed as 66%; in the assay on HCA-7 (colon cancer) (10 μM, listed as iminodibenyl) it was 66%; in assay [1], 22%; in assay [1] (listed as iminodibenyl), 22%; in [3] it was 73%; in [3] (listed as iminodibenyl) it was 73%. For the same compound, the viability at 10 µM with HCA-7 (colon cancer) (Homo sapiens, HCA-7, 48 h, read-out: cell viability) is about 66%. In addition, the 50% inhibitory concentration (IC50) at D5D (setting [4]) worked out at 104 nM. Moreover, the “Primary Tumor size (mm^3)” value in [2] (Day 14, vehicle 128) came to 87 mm^3; in assay [2] (Day 21, vehicle 916), 476 mm^3; in assay [2] (Day 28, vehicle 2956), 1153 mm^3. Also, the “Lung tumor(s) per mouse” value in assay [2] (Day 21, metastatic lung tumors, 1 mouse, vehicle 4) is reported as 0. For the same compound, the “8-HOA (μM) in Blood” value in assay [2] (Day 28) came out at 0.021 µM. The “Reduced Tumor Growth vs. V.C.” value in assay [2] (Day 28, listed as Iminodibenzy, 15 mg/kg) is 58%; in assay [2] (Day 28, listed as iminodibenzyl, 15 mg/kg), 58%. The “mice that developed metastatic lung tumor” value in [2] was 1 of four mice. The “[8-HOA]” value with A549 cells amounted to 0.83 µM; in the assay on BxPC-3 cells, 0.53 µM; in the assay with HCA-7 xenograft tumor (setting [5]), 0.07 µg/g; in the assay on A549 xenograft tumor it was 0.05 µg/g. Also, the “[8-HOA] (HCA-7 cells)” value with HCA-7/C29 cells is 0.65 µM; in the assay with HCA-7/C29 cells (listed as iminodibenzyl), > 0.5 µM and 0.65 µM. Further, the “[PGE2] in tumors after 4-week treatment” value in the assay with HCA-7 xenograft tumor (15 mg/kg every day, vehicle control 2.0 μg/g) worked out at 1.6 µg/g; with A549 xenograft tumor (A549 tumor, 15 mg/kg every day, vehicle control 2.0 μg/g), 1.5 µg/g. The “[AA] in tumors after 4-week treatment” value in the assay with HCA-7 xenograft tumor (15 mg/kg every day, vehicle control 3.5 μg/g) was found to be 2.2 µg/g; in the assay with A549 xenograft tumor (A549 tumor, 15 mg/kg every day, vehicle control 3.7 μg/g), 2.5 µg/g. Besides, the “Tumor Growth Reduction % (vs. Control)” value with HCA-7 xenograft tumor (setting [5]) turned out to be 17%; in the assay with HCA-7 xenograft tumor (every day, 4-week, DGLA 5 mg/mouse oral, iminodibenzyl 15 mg/kg i.p., listed as Iminodibenzly), 17%; with A549 xenograft tumor, 40%; with A549 xenograft tumor (listed as Iminodibenzly), 40%.

Turning to `c1cc2c(cc1[C@H]1OC[C@H]3[C@@H]1CO[C@@H]3c1ccc3c(c1)OCO3)OCO2` [Sesame, sesamin, reference compound], at D5D (setting [4]), the IC50 came to 346 nM. The “[8-HOA] (HCA-7 cells)” value in the assay on HCA-7/C29 cells worked out at 0.33 µM.

On to `O=c1[nH]cc(F)c(=O)[nH]1` [Molecule 5-FU, 5-fluorouracil, reference compound], for which the “Tumor Growth Reduction % (vs. Control)” value in the assay with HCA-7 xenograft tumor (twice/week up to 4-week, 5-FU 30 mg/kg, DGLA 8 mg/mouse, iminodibenzyl 25 mg/kg) is given as 29%.

On to `CCCCC/C=C\C/C=C\C/C=C\CCCCCCC(=O)O` [DGLA, dihomo-γ-linolenic acid], for which the “Primary Tumor size (mm^3)” value was found to be 106 mm^3 in [2] (Day 14, vehicle 128); 908 mm^3 in assay [2] (Day 21, vehicle 916); 2631 mm^3 in assay [2] (Day 28, vehicle 2956). Also, the “8-HOA (μM) in Blood” value in assay [2] (Day 28) was 0.31 µM. In assay [2] (Day 28), the “Reduced Tumor Growth vs. V.C.” value is listed as “unable to inhibit primary tumor growth”. Besides, in assay [2], the “mice that developed metastatic lung tumor” value is “All three mice in this group developed lung tumors”. Further, the “Tumor Growth Reduction % (vs. Control)” value in the assay with HCA-7 xenograft tumor (setting [5]) and in the assay on A549 xenograft tumor was “did not deliver any inhibitory effect on tumor growth” each time. The “[8-HOA]” value in the assay on HCA-7 xenograft tumor (setting [5]) was determined as 0.27 µg/g; in the assay on A549 xenograft tumor, 0.22 µg/g.

Regarding `C1=Cc2ccccc2Nc2ccccc21` [Iminostilbene, 5H-dibenz[b,f]azepine], the “suppression of cancer cell growth” value with HCA-7 (colon cancer) (10 μM, colon cancer cells) is “unable to suppress cancer cell growth”. Further, the “[8-HOA] (HCA-7 cells)” value with HCA-7/C29 cells is “did not promote 8-HOA formation”.

As to `CC(C)CCOc1ccc(N)cc1` [CP-24879, reference compound], the “[8-HOA] (HCA-7 cells)” value in the assay on HCA-7/C29 cells was determined as 0.42 µM.

As to `COc1cc(/C=C/C(=O)CC(=O)/C=C/c2ccc(O)c(OC)c2)ccc1O` [Cucurmin, curcumin, reference compound], on D5D, the IC50 was determined as 148 nM. Besides, in the assay with HCA-7/C29 cells, the “[8-HOA] (HCA-7 cells)” value was 0.43 µM.

The record behind these values is US10639313B2, “Compound for inhibition of delta-5-desaturase (D5D) and treatment of cancer and inflammation” (NDSU Research Foundation, priority 2017, dated 2020).
